Assay results published in article PMC9296983, “Synthesis and HDAC inhibitory activity of pyrimidine-based hydroxamic acids” (Beilstein Journal of Organic Chemistry, 2022).

Assays:
[1] = target: T1, HDAC8 (Homo sapiens, UniProt Q9BY41); assay: HDAC enzyme activity assay (fluorogenic, Boc-Lys(trifluoroacetyl)-AMC substrate), HDAC8; assay type: biochemical; conditions: recombinant HDAC8; BOC-LYS-(TFA)-AMC as substrate, 100 mM TRIS, 300 mM KCl, pH 8.0 buffer, 30 °C
T1 construct: made in house
T1 sequence (Q9BY41 1-377): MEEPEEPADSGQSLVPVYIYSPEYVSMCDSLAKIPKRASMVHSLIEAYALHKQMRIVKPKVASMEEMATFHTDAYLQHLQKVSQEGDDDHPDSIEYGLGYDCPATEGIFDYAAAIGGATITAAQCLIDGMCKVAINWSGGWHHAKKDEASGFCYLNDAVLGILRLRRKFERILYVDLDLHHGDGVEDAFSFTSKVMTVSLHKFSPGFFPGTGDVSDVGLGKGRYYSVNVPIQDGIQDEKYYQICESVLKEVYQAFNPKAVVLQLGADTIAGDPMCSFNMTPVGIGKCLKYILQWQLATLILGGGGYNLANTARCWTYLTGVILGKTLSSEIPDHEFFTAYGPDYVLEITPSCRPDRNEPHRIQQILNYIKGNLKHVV
Procedure: (§1) Compounds 12–18 and 25–31 were tested as inhibitors of HDAC4 and HDAC8 isoforms according to the procedures described previously. […]. […]
(§2) HDAC enzyme activity assay
Recombinant HDAC4 and 8 were produced as described in [3]. […]
HDAC in a black 96-well microtiter half -area plate (Greiner) for 60 min at 30 °C. Subsequentl y the reaction was started by the addition of 20 μM Boc -Lys(trifluoroacetyl) -AMC (Bachem) as a substrate.
(§3) After incubation for 60 min at 30 °C, the reaction was stopped by the addition of 1.7 μM SATFMK.
(§4) The deacetylated substrate was transformed into a flu orescent product by the addition of 0.4 mg/m L trypsin (Applichem). The release of AMC was followed in a microplate reader (PheraStar Plus, BMG Labtech) at 450 nm (λ Ex = 350 nm) and correlated to enzyme activity. Dose–response curves were produced with GraphPad Prism and fitted to a four parameters logistic function to obtain IC50 values […]
(§5) in which EA is the enzyme activity at a given inhibitor concentration x; Emax and E0 are the enzyme activities determined at zero and complete inhibition, respectively; IC50 represents the inhibitor concentration at which half the enzyme molecules are inhibited; h is the slope of the curve. […]
(§6) (1 picture or pasted object on this page, not shown here)

[2] = target: T2, HDAC4 (Homo sapiens, UniProt P56524); assay: HDAC enzyme activity assay (fluorogenic, Boc-Lys(trifluoroacetyl)-AMC substrate), HDAC4; assay type: biochemical; conditions: recombinant HDAC4; BOC-LYS-(TFA)-AMC as substrate, 100 mM TRIS, 300 mM KCl, pH 8.0 buffer, 30 °C
T2 construct: made in house
T2 sequence (P56524 whole entry, species assumed): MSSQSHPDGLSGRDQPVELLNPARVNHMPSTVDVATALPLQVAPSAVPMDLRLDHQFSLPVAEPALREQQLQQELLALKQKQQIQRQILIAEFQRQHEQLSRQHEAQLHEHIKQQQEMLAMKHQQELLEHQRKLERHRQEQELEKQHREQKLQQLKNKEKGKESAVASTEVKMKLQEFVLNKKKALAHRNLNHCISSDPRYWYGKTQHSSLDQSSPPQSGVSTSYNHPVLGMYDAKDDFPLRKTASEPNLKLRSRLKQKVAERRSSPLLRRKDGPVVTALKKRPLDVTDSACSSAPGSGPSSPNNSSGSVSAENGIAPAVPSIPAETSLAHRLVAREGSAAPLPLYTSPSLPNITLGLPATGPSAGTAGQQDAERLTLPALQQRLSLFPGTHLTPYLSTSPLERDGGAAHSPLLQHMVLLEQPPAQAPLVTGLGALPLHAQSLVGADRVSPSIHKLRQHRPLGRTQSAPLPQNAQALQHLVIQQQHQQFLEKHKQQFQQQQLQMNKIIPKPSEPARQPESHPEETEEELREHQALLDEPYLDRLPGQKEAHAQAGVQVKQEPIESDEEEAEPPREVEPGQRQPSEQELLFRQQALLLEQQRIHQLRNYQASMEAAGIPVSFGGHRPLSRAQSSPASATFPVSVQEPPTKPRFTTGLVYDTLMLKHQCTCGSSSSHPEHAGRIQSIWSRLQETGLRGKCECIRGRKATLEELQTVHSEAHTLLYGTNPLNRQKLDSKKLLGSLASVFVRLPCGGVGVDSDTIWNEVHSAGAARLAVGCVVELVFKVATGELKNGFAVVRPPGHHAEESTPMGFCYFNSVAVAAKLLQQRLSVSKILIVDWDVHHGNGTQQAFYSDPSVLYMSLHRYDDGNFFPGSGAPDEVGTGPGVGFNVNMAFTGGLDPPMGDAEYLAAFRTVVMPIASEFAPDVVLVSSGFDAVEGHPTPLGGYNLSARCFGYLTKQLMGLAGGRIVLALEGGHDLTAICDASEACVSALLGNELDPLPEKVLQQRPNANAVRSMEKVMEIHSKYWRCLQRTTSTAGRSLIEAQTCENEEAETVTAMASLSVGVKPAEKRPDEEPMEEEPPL
Procedure: as §1, §2
Recombinant HDAC4 and 8 were produced as described in [3]. Serial dilutions of the inhibitor in the assay buffer (25 mM Tris -HCl, pH 8.0, 75 mM KCl, 0.001 % Pluronic F-127) were incubated with HDAC in a black 96-well microtiter half -area plate (Greiner) for 60 min at 30 °C. Subsequentl y the reaction was started by the addition of 20 μM Boc -Lys(trifluoroacetyl) -AMC (Bachem) as a substrate.
as §3, §4, §5, §6

| Compound | IC50 [1] [µM] | IC50 [2] [µM] | melting point |
| --- | --- | --- | --- |
| Cc1cc(OCC(=O)NO)nc(NCc2ccccc2)n1 [compound 15] | 14 |  | 168 to 170 °C |
| Cc1cc(OCC(=O)NO)nc(N(C)C)n1 [compound 16] | 35 |  | 192 to 194 °C |
| CSc1nc(C)cc(OCCCC(=O)NO)n1 [compound 25] | 5.65 | > 50 | 150 to 151 °C |
| CSc1nc(C)cc(OCCCCCC(=O)NO)n1 [compound 26] | 2.05 | > 50 | 112 to 113 °C |
| CCCc1c(C)nc(SC)nc1OCC(=O)NO [compound 27] | 1.4 | 38 | 144 to 146 °C |
| CCCc1c(C)nc(SC)nc1OCCCCCC(=O)NO [compound 29, N-hydroxy-6-[6-methyl-2-(methylthio)-5-propylpyrimidin-4-yloxy]hexanamide] | 1.2 | 16.6 |  |
| CCCc1c(C)nc(SC)n(CCCC(=O)NO)c1=O [compound 31, N-Hydroxy-4-[6-methyl-2-(methylthio) -4-oxo-5-propylpyrimidin-3(4H)-yl]butanamide] | > 35 | > 35 | 133 to 135 °C |

The next lines start with the values.

| IC50 [1] [µM] | IC50 [2] [µM] | melting point | Compound |
| --- | --- | --- | --- |
| 28 | 38 | 182 to 184 °C | CSc1nc(C)cc(OCC(=O)NO)n1 [compound 12] |
| 13 |  | 175 to 176 °C | CCSc1nc(C)cc(OCC(=O)NO)n1 [compound 13] |
| 15 |  | 177 to 179 °C | C=CCNc1nc(C)cc(OCC(=O)NO)n1 [compound 14] |
| 13 |  | 178 to 180 °C | Cc1cc(OCC(=O)NO)nc(N2CCCC2)n1 [compound 17] |
| 60 |  | 190 to 191 °C (dec.) | Cc1cc(OCC(=O)NO)nc(O)n1 [compound 18] |
| 2.4 | > 35 | 125 to 127 °C | CCCc1c(C)nc(SC)nc1OCCCC(=O)NO [compound 28] |
| > 35 | > 35 | 185 to 187 °C | CCCc1c(C)nc(SC)n(CC(=O)NO)c1=O [compound 30, N-Hydroxy-[6-methyl-2-(methylthio) -4-oxo-5-propylpyrimidin-3(4H)-yl]acetamide] |
